The structures appear in SMILES notation.

The results in this text go back to ChEMBL document CHEMBL1151588, “1,2-diaminobenzimidazoles : Selective inhibitors of nitric oxide synthase derived from aminoguanidine” (Bioorg Med Chem Lett, 1995).

Experiment [1] concerns the target T1, Nitric oxide synthase, inducible (Homo sapiens, UniProt P35228). The experiment is described as follows: Tested to inhibit the conversion of [3H]-L-arginine to [3H]L-citrulline catalyzed by inducible NOS from human DLD-1 cells at concentration below 100 uM; No significant inhibition. It counts as cell-based.
The target in experiment [2] is T2, Nitric oxide synthase 3 (Homo sapiens, UniProt P29474).
T2 sequence (P29474 whole entry): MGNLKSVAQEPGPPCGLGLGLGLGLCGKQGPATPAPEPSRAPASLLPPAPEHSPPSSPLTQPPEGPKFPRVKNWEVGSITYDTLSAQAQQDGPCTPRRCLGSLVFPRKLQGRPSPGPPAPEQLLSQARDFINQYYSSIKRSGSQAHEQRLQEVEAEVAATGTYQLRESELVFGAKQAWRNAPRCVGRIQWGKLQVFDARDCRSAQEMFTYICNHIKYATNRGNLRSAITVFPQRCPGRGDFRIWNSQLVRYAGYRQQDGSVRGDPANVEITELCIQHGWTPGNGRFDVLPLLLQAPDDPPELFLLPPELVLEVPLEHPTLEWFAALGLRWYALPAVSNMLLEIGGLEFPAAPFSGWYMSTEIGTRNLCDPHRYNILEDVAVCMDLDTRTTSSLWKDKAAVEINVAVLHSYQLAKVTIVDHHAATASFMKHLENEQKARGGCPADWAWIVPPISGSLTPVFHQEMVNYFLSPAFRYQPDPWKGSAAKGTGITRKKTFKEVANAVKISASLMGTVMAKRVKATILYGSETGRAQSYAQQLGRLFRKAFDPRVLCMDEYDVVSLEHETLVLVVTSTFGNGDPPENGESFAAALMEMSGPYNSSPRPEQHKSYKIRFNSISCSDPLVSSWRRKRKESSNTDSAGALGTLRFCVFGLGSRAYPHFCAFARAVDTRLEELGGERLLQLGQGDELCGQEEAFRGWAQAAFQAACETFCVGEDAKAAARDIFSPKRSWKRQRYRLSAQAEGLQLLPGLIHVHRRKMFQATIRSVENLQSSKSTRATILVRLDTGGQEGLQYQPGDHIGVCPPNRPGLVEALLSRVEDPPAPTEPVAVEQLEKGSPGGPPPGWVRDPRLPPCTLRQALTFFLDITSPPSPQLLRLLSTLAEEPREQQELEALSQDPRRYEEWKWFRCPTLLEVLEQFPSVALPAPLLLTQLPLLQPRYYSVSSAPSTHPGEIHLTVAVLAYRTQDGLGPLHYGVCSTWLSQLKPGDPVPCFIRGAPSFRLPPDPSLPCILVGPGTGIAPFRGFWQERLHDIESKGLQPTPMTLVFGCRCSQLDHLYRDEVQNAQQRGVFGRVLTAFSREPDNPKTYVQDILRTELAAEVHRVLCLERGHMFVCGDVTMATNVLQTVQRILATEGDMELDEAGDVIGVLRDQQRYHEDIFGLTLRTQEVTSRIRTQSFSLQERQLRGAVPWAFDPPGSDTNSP
The experiment is described as follows: Tested to inhibit the conversion of [3H]L-arginine to [3H]L-citrulline catalyzed by endothelial NOS from human umbilical vein endothelial cells; No significant inhibition. It counts as cell-based. To be noted: endothelial cell.

Experiment [3] deals with T3, Nitric oxide synthase, inducible (Mus musculus, UniProt P29477).
T3 sequence (P29477 whole entry): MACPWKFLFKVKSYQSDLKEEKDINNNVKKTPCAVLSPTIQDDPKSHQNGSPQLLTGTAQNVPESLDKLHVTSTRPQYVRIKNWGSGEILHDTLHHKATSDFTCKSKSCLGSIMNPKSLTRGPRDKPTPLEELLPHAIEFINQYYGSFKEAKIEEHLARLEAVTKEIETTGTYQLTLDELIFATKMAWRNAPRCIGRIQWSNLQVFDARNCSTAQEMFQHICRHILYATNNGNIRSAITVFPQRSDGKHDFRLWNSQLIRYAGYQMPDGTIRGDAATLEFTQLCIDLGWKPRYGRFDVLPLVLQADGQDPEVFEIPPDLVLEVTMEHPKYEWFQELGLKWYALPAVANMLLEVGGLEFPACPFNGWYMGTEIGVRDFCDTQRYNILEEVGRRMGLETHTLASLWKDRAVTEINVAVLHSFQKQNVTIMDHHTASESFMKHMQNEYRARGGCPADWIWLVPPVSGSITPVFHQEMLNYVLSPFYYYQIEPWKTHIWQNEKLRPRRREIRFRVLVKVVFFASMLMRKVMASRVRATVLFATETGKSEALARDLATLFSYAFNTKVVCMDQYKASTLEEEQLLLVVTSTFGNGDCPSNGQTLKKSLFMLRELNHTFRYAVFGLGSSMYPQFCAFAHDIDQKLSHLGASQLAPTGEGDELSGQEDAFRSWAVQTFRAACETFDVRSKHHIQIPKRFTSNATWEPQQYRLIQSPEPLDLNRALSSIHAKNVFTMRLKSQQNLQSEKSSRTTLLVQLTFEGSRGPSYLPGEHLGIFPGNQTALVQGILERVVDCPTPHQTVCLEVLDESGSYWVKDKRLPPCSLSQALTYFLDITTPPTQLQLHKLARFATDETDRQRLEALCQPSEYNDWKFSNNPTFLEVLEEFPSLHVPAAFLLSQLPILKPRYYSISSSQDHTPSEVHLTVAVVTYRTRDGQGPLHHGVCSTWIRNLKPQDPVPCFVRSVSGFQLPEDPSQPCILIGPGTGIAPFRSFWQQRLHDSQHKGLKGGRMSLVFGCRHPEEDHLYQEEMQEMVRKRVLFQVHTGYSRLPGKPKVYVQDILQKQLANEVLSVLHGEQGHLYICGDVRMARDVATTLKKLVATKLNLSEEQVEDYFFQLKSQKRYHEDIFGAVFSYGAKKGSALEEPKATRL
The experiment in a line: Tested to inhibit the conversion of [3H]L-arginine to [3H]L-citrulline catalyzed by inducible NOS from mouse macrophage J774 cells at concentration below 100 uM; No significant inhibition. It counts as cell-based.

For experiment [4], the target named is T4, Nitric oxide synthase 1 (Rattus norvegicus, UniProt P29476). The experiment is described as follows: Tested to inhibit the conversion of [3H]L-arginine to [3H]L-citrulline catalyzed by neuronal NOS from rat cerebellum. It counts as tissue-based.
Experiment [5] concerns the target T1, Nitric oxide synthase, inducible. The experiment in a line: Tested to inhibit the conversion of [3H]L-arginine to [3H]L-citrulline catalyzed by inducible NOS from human DLD-1 cells. The experiment is classed as cell-based.
Experiment [6] has as its target T2, Nitric oxide synthase 3. The experiment in a line: Tested to inhibit the conversion of [3H]L-arginine to [3H]L-citrulline catalyzed by endothelial NOS from human umbilical vein endothelial cells at concentration below 100 uM; No significant inhibition. The conditions noted are these: endothelial cell. The experiment is classed as cell-based.
The target in experiment [7] is T3, Nitric oxide synthase, inducible. The experiment is described as follows: Tested to inhibit the conversion of [3H]L-arginine to [3H]L-citrulline catalyzed by inducible NOS from mouse macrophage J774 cells. It counts as cell-based.
Experiment [8] concerns the target T4, Nitric oxide synthase 1. The experiment is described as follows: Tested to inhibit the conversion of [3H]L-arginine to [3H]L-citrulline catalyzed by neuronal NOS from rat cerebellum at concentration below 100 uM; No significant inhibition.

T1 sequence (P35228 whole entry): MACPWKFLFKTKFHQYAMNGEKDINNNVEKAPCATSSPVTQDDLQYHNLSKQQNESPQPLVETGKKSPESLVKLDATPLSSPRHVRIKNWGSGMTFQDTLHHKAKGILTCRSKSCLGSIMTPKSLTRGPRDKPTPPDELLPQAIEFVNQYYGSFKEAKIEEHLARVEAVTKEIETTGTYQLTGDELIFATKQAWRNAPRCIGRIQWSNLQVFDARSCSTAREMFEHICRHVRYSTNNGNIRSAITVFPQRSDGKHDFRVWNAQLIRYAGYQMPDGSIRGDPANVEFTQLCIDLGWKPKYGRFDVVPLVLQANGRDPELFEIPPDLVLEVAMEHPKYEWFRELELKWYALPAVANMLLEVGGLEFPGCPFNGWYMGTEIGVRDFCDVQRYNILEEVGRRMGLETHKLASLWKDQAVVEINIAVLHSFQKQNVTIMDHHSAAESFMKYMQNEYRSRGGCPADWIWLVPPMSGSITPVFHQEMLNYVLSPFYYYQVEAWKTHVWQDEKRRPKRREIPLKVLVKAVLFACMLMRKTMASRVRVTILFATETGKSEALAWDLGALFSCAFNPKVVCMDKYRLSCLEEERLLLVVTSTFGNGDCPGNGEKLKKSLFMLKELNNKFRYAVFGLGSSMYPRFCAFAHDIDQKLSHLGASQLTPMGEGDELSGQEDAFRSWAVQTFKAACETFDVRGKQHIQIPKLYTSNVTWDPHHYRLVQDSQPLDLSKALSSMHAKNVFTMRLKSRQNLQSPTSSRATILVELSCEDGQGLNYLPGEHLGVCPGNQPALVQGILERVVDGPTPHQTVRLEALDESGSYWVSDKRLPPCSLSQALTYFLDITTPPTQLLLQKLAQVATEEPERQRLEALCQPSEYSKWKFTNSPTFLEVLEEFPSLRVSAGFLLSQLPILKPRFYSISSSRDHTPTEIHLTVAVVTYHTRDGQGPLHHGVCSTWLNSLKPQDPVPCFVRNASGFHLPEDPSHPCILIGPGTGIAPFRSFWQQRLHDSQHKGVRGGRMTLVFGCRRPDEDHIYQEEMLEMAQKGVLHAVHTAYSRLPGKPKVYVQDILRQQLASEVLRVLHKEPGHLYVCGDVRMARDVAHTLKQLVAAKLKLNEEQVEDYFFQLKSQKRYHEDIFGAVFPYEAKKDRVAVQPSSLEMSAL
T4 sequence (P29476 whole entry): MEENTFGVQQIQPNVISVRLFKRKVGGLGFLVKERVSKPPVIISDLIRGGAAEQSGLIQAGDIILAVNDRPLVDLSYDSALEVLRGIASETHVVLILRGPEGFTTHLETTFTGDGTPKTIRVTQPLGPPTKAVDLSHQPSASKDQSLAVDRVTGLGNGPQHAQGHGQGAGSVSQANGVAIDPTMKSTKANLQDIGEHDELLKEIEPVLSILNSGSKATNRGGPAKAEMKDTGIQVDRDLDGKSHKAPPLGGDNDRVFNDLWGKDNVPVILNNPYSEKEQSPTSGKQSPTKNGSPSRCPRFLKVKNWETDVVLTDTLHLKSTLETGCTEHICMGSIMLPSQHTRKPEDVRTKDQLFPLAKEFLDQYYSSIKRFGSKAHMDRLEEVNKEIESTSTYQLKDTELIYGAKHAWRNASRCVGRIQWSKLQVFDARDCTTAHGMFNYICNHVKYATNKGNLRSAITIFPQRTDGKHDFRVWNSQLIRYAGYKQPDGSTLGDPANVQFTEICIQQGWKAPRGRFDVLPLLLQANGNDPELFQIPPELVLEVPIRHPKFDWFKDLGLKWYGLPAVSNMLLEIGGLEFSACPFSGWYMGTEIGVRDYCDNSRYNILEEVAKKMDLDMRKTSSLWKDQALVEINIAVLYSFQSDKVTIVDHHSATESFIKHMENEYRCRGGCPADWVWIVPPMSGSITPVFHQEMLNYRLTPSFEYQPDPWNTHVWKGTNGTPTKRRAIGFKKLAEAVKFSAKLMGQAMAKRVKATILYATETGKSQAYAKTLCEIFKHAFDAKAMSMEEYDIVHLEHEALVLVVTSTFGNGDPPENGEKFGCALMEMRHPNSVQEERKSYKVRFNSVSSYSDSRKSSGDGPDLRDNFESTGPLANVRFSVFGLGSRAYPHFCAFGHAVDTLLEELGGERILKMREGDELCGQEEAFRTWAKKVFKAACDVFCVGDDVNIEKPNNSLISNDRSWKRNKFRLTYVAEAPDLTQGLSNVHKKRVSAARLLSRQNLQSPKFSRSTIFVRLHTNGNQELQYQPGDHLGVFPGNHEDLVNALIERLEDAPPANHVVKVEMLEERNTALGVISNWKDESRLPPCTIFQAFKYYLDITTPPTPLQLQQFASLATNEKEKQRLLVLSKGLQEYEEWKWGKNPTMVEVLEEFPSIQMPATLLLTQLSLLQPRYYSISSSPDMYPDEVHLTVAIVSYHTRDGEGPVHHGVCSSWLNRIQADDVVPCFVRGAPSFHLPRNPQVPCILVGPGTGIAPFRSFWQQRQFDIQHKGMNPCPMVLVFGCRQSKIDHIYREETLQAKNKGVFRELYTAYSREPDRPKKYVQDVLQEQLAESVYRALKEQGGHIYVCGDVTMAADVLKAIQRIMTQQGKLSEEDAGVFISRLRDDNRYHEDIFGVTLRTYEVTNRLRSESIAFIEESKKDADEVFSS

In the case of `CNn1c(N)nc2ccccc21`, the concentration for half-maximal inhibition (IC50) entry in experiment [1] was “Not Active”; on Nitric oxide synthase 3 [2] it was “Not Active”; in experiment [3] it was “Not Active”; at Nitric oxide synthase 1 [4], 5.8 µM.
With `Nc1nc2ccccc2n1N`, the IC50 in experiment [5] was 25 µM; against Nitric oxide synthase 3 [6] it was “Not Active”; in experiment [7], 31 µM; against Nitric oxide synthase 1 [4], 77 µM.
For the molecule `N=C(N)NN` [PIMAGEDINE], the IC50 is 54 µM in experiment [5], “Not Active” against Nitric oxide synthase 3 [6], 9 µM in experiment [7] and “Not Active” at Nitric oxide synthase 1 [8].
In the case of `O=[N+]([O-])c1cccc2cn[nH]c12` [7-NITROINDAZOLE], the figures for the IC50 in experiment [5] and in experiment [7] were 24 µM and 20 µM, respectively.
